Assay results published in patent US7176281B2 (priority 2003, dated 2007).
Where a SMILES comes first, the peptide text is derived from it.

Key:
[1] = tested on: sPLA2; assay: Inhibition of sPLA2 activity at fixed concentrations; format: biochemical
[2] = tested on: murine macrophage cell line J774; assay: LPS- or TNF-induced PGE2 production in J774 macrophages; format: cell-based, mouse; conditions: J774 cells, 20 h
Experimental: The murine macrophage cell line J774 (ATCC, USA) was cultured at 37° C. in humidified 5% CO2/95% air in Dulbecco's Modified Eagle's Medium (DMEM) containing 10% foetal bovine serum, 2 mM glutamine, 20 mM Hepes, 100 Ul/ml penicillin and 100 μg/ml streptomycin. After growing to confluence, the cells were dislodged by scrapping, plated in 12 culture wells at a density of 5×10^5 cells/ml per well, and allowed to adhere for 2 h. […] Culture medium supernatants were collected after centrifugation (10,000 g, 4° C., 15 min) and stored at −80° C. prior to measurement of PGE2, which was done according to the manufacturer's instructions (EIA kit-monoclonal, Cayman Chemical, USA).
FIGS. 13A and 13B show modulation of LPS- and TNF-stimulated PGE2 release. […] Supernatants were collected, and PGE2 release in the medium was determined by ELISA. Results are shown as the mean±SEM of 5 experiments performed in duplicate. **P<0.01 between inhibitor-treated and untreated cultures.

[3] = molecular target: T1, 100-kDa human recombinant cytosolic form of PLA2 (cPLA2) (Homo sapiens, UniProt P47712); assay: PLA2 inhibition, E. coli membrane assay, cPLA2; format: biochemical; conditions: inhibition
T1 sequence (P47712 1-749): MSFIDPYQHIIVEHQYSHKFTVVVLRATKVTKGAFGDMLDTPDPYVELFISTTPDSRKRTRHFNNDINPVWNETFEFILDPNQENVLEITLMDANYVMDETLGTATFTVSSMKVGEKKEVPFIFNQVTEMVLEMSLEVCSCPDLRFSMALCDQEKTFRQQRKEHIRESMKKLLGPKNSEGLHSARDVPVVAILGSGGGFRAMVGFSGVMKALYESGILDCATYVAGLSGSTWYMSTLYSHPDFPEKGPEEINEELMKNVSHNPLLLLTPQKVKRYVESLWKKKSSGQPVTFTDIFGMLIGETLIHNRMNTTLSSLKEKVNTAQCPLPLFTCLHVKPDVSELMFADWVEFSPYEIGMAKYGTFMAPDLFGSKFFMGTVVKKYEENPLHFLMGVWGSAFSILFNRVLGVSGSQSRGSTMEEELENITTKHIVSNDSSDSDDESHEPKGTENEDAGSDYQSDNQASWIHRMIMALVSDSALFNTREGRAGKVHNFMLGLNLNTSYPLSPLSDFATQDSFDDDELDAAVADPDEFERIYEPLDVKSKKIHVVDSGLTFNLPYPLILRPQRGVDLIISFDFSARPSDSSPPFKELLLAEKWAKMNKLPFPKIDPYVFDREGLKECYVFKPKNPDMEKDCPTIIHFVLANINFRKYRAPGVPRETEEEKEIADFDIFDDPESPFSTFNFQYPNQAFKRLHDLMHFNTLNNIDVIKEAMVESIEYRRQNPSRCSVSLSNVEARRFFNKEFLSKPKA

[4] = tested on: serum sPLA2; assay: Serum sPLA2 levels in Tg197 mice, E. coli membrane assay; format: in vivo, mouse; conditions: 3–4 weeks post-treatment
Experimental: Serum of transgenic (Tg197) mice and non-transgenic wild type controls were measured for sPLA2 using an Escherichia coli (E. coli) membrane assay as described previously [Eur J Biochem 2002, 269:719–727]. In brief, [^3H] arachidonate-labeled E. coli membrane suspension (5.8 μCi/μmol, Perkin Elmer, USA) was used as substrate, and 25 mM CaCl2-100 mM Tris-HCl (pH 7.5) as assay buffer. The reaction mixture containing substrate (20 μl), and either purified human synovial sPLA2 standard (1–80 ng/ml, Cayman, USA) or serum (10 μl) in a final volume of 250 μl in assay buffer was incubated at 37° C. for 1 h, and the reaction terminated with 750 μl of chilled PBS containing 1% BSA. 500 μl aliquots of the supernatant were then taken to measure the amount of [^3H] arachidonate released from the E. coli membrane using liquid scintillation counting (Beckman LS 6500 Scintillation Counter). The amount of sPLA2 present in the serum was calculated from the standard curve, and is expressed as ng/ml±SEM.
FIG. 12 depicts time course of serum sPLA2 levels. Serum sPLA2 levels were measured with an E. coli membrane assay in blood samples collected from untreated, P-NT.I- and scrambled P-NT.II-treated Tg197 mice at weekly intervals. Values are the mean±SD (n=4/group). […]

With CC[C@H](C)[C@H](NC(=O)[C@H](Cc1ccc(O)cc1)NC(=O)[C@@H](NC(=O)CNC(=O)[C@H](CC(=O)O)NC(=O)[C@H](Cc1c[nH]c2ccccc12)NC(=O)[C@@H](NC(=O)[C@H](Cc1c[nH]cn1)NC(=O)[C@@H](NC(=O)[C@H](CC(=O)O)NC(=O)[C@@H](NC(=O)[C@H](CCCNC(=N)N)NC(=O)CNC(=O)[C@@H](N)CC(C)C)C(C)C)[C@@H](C)CC)C(C)C)C(C)C)C(=O)N[C@@H](CCCNC(=N)N)C(=O)NCC(=O)N[C@@H](CCCNC(=N)N)C(=O)O [P-NT.II] (H-LGRVDIHVWDGVYIRGR-OH; N-terminus and C-terminus assumed) the “inhibition of sPLA2 activity” value ([1]; 6 μM) was 80%, the “inhibition of sPLA2 activity” value ([1]; 10 μM) was 90% and the “LPS- or TNF-induced PGE2 production” value [2] was “dose-dependently inhibit”. For the same molecule, the “selectivity for sPLA2 over cPLA2” value [3] was “five-fold” and the “circulating sPLA2 compared with untreated mice” value [4] was “significantly suppressed”.
